The values below come from patent US20060252807A1, “Novel ortho-terphenyl inhibitors of p38 kinase and methods of treating inflammatory disorders” (Kalypsys, Inc., priority 2005, published 2006).

For one assay, the target named is T1, active p38 alpha enzyme (Upstate Biotechnology) (Homo sapiens, UniProt Q16539).
T1 construct: purchased Upstate Biotechnology
T1 sequence (Q16539 whole entry): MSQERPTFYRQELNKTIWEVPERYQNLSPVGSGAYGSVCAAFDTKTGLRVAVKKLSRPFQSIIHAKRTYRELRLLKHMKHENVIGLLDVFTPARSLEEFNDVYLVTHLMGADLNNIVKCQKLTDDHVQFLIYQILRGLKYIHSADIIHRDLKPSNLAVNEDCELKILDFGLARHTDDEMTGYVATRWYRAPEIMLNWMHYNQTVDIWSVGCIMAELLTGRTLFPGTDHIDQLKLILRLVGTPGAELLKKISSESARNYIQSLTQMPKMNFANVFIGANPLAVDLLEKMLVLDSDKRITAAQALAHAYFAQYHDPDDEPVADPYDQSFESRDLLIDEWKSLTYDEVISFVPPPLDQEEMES
The experiment in a line: p38α biochemical assay (ATP turnover, luminescent detection, Cambrex PKlight). As to conditions: p38α biochemical assay, Table 1 Biological Activity. The method in brief:
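In this kinase reaction, p38α used MapkapK2 as phosphorylation substrate at low ATP (1.4 uM final) over 2 hours at 30C, and activity was followed as ATP turnover by luminescence.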
`CC(=O)Oc1ccc(C(=O)NCc2nc(-c3ccc(F)cc3)c(-c3nc(C(=O)NC(C)C)cs3)o2)cc1` [Example 213]: the IC50 – broadly, the midpoint of a concentration-inhibition curve – was more than 1000 nM.
In turn, `CC(C)NC(=O)c1csc(-c2oc(CNC(=O)C3CCc4ccccc4C3)nc2-c2ccc(F)cc2)n1` (centres unmarked) [Example 204] had an IC50 of more than 1000 nM.
The same measure, in the same setting: the value for `CC(C)NC(=O)c1csc(-c2c(-c3ccc(F)cc3)noc2CNC(=O)c2cc(F)c(F)cc2[N+](=O)[O-])n1` [Example 753] was more than 1000 nM; that for `CC(C)NC(=O)c1csc(-c2c(-c3ccc(F)cc3)noc2CNC(=O)/C=C/c2ccccc2F)n1` [Example 653] was not above 1000 nM; that for `CC(C)NC(=O)c1csc(-c2oc(CN3CCN(C(=O)c4ccccc4-c4ccccc4)CC3)nc2-c2ccc(F)cc2)n1` [Example 504] was not above 1000 nM.
The same measure, in the same setting: the value for `Cc1cc(C)c(C(=O)NCc2nc(-c3ccc(F)cc3)c(-c3nc(C(=O)NC(C)C)cs3)o2)c(C)c1` [Example 175] was more than 1000 nM; that for `CC(C)NC(=O)c1csc(-c2oc(CNC(=O)c3cccc(Oc4ccccc4)c3)nc2-c2ccc(F)cc2)n1` [Example 288] was more than 1000 nM; that for `COc1ccc(/C=C/C(=O)N2CCN(Cc3nc(-c4ccc(F)cc4)c(-c4nc(C(=O)NC(C)C)cs4)o3)CC2)cc1O` [Example 499] was not above 1000 nM.
The same measure, in the same setting: the value for `CC(C)NC(=O)c1csc(-c2oc(CNC(=O)/C=C/c3ccccc3)nc2-c2ccc(F)cc2)n1` [Example 131] was not above 1000 nM.
In turn, `Cc1[nH]nc(-c2ccc(F)cc2)c1-c1nc(C(=O)NCc2cccnc2)cs1` [Example 76, 2-|3-(4-Fluoro-phenyl)-5-methyl-1H-pyrazol-4-yl|-thiazole-4-carboxylic acid (pyridin-3-ylmethyl)-amide] had an IC50 not above 1000 nM.
`COc1cccc(OC)c1C(=O)NCc1nc(-c2ccc(F)cc2)c(-c2nc(C(=O)NC(C)C)cs2)o1` [Example 226] gave an IC50 not above 1000 nM.
Same read-out and setting: for `Cc1c(C(=O)N2CCN(Cc3nc(-c4ccc(F)cc4)c(-c4nc(C(=O)NC(C)C)cs4)o3)CC2)oc2ccccc12` [Example 439] the value was more than 1000 nM.
The same measure, in the same setting: for `CC(C)NC(=O)c1csc(-c2oc(CNC(=O)c3ccc4ncccc4c3)nc2-c2ccc(F)cc2)n1` [Example 197] the value was not above 1000 nM; for `CC(C)NC(=O)c1csc(-c2oc(CNC(=O)c3cccc(O)c3)nc2-c2ccc(F)cc2)n1` [Example 124], not above 1000 nM.
`Cc1onc(-c2ccc(Cl)cc2)c1-c1ccn(C(=O)CC(C)C)n1` [Example 20, 1-{3-|3-(4-Chloro-phenyl)-5-methyl-isoxazol-4-yl|-pyrazol-1-yl}-3-methyl-butan-1-one] returned an IC50 of more than 1000 nM.
Still for that read-out and setting: for `CC(C)NC(=O)c1csc(-c2oc(CN3CCN(C(=O)C(C)NC(=O)OC(C)(C)C)CC3)nc2-c2ccc(F)cc2)n1` (centres unmarked) [Example 484] the value was more than 1000 nM; for `COc1ccc(C(=O)NCc2nc(-c3ccc(F)cc3)c(-c3nc(C(=O)NC(C)C)cs3)o2)c(O)c1` [Example 188], more than 1000 nM; for `Cc1nc(-c2ccc(F)cc2)c(-c2nc(C(=O)NC3CCC3)cs2)s1` [Example 50, 4′-(4-Fluoro-phenyl)-2′-methyl-|2,5′|bithiazolyl-4-carboxylic acid cyclobutylamide], not above 1000 nM.
In turn, `CC(C)NC(=O)c1csc(-c2c(-c3ccc(F)cc3)noc2CNC(=O)c2ccc(F)cc2F)n1` [Example 634] came in with an IC50 of more than 1000 nM.
In the case of `CC(C)NC(=O)c1csc(-c2oc(CN3CCN(C(=O)c4cc([N+](=O)[O-])ccc4F)CC3)nc2-c2ccc(F)cc2)n1` [Example 472], the IC50 was more than 1000 nM.
On the same count and under the same terms, the value for `CC(C)NC(=O)c1csc(-c2c(-c3ccc(F)cc3)noc2CNC(=O)CCc2ccccc2Br)n1` [Example 784] was more than 1000 nM; that for `Cc1cccc(C(=O)N2CCN(Cc3nc(-c4ccc(F)cc4)c(-c4nc(C(=O)NC(C)C)cs4)o3)CC2)c1[N+](=O)[O-]` [Example 458] was more than 1000 nM.
Same read-out and setting: for `Cc1cccc(CCC(=O)NCc2onc(-c3ccc(F)cc3)c2-c2nc(C(=O)NC(C)C)cs2)c1` [Example 648] the value was more than 1000 nM; for `CC(C)NC(=O)c1csc(-c2oc(CN3CCN(C(=O)c4cc(F)c(Cl)cc4F)CC3)nc2-c2ccc(F)cc2)n1` [Example 496], more than 1000 nM.

Still in this assay, the particulars now being: p38α kinase; Table 1 Biological Activity.
`O=C(NC1CCCCC1)c1csc(-c2c(-c3ccc(F)cc3)ncn2C2CCNCC2)n1` [Example 2191, 2-|5-(4-Fluoro-phenyl)-3-piperidin-4-yl-3H-imidazol-4-yl|-thiazole-4-carboxylic acid cyclohexylamide] showed an IC50 not above 1000 nM.
On the same count and under the same terms, the value for `CCCOc1ccc(C(=O)N2CCC(c3[nH]nc(-c4ccc(F)cc4)c3-c3nc(C(=O)NC(C)C)cs3)CC2)cc1` [Example 932] was more than 1000 nM.
As to `COc1ccc(C(=O)N2CCC(c3[nH]nc(-c4ccc(F)cc4)c3-c3nc(C(=O)NC(C)C)cs3)CC2)cc1O` [Example 903], the IC50 is more than 1000 nM.
`COc1ccc(NCc2nc(-c3ccc(F)cc3)c(-c3nc(C(=O)NC(C)C)cs3)o2)cc1` [Example 1325] had an IC50 of more than 1000 nM.
The same measure, in the same setting: for `CC(C)NC(=O)c1csc(-c2c(-c3ccc(F)cc3)ncn2C2CCN(CCO)CC2)n1` [Example 2193, 2-{5-(4-Fluoro-phenyl)-3-|1-(2-hydroxy-ethyl)-piperidin-4-yl|-3H-imidazol-4-yl}-thiazole-4-carboxylic acid isopropylamide] the value was more than 1000 nM.
`Cc1cccnc1NCc1onc(-c2ccc(F)cc2)c1-c1nc(C(=O)NC(C)C)cs1` [Example 1637] came in with an IC50 of more than 1000 nM.
Same read-out and setting: for `CCN(CCCCO)Cc1nc(-c2ccc(F)cc2)c(-c2nc(C(=O)NC(C)C)cs2)o1` [Example 1215] the value was more than 1000 nM; for `CC(C)NC(=O)c1csc(-c2c(-c3ccc(F)cc3)n[nH]c2C2CCN(C(=O)Cc3ccc4c(c3)OCO4)CC2)n1` [Example 931], more than 1000 nM; for `CC(C)NC(=O)c1csc(-c2oc(CNc3cnc4ccccc4c3)nc2-c2ccc(F)cc2)n1` [Example 1346], more than 1000 nM.
On the same count and under the same terms, for `CC(C)NC(=O)c1csc(-c2c(-c3ccc(F)cc3)noc2CNCC2CCCCC2)n1` [Example 1421] the value was more than 1000 nM.
`COc1ccncc1NCc1onc(-c2ccc(F)cc2)c1-c1nc(C(=O)NC(C)C)cs1` [Example 1650] gave an IC50 of more than 1000 nM.
The compound `CC(C)NC(=O)c1csc(-c2c(-c3ccc(F)cc3)n[nH]c2C2CCN(C(=O)c3ccc(-c4ccc(O)cc4)cc3)CC2)n1` [Example 1005] displayed an IC50 of more than 1000 nM.
`CC(C)NC(=O)c1csc(-c2c(-c3ccc(F)cc3)n[nH]c2C2CCN(C(=O)/C=C/c3ccccc3Cl)CC2)n1` [Example 945] came in with an IC50 of more than 1000 nM.
`COc1cc(CN(C)Cc2nc(-c3ccc(F)cc3)c(-c3nc(C(=O)NC(C)C)cs3)o2)cc(OC)c1OC` [Example 1285]: the IC50 is more than 1000 nM.
Same read-out and setting: the value for `CC(C)NC(=O)c1csc(-c2oc(CN3CCN(c4ccc(C#N)cn4)CC3)nc2-c2ccc(F)cc2)n1` [Example 1261] was more than 1000 nM; that for `CN(CCCNC(=O)c1csc(-c2c(-c3ccc(F)cc3)n[nH]c2C2CCNCC2)n1)c1ccccc1` [Example 2136] was more than 1000 nM; that for `CCOc1ccc2ccccc2c1C(=O)N1CCC(c2[nH]nc(-c3ccc(F)cc3)c2-c2nc(C(=O)NC(C)C)cs2)CC1` [Example 1011] was more than 1000 nM.
As for `Cc1nc(-c2ccc(F)cc2)c(-c2nc(C(=O)NC(CO)C(C)C)cs2)s1` (centres unmarked) [Example 1738], the IC50 is not above 1000 nM.
Compound `CC(C)NC(=O)c1csc(-c2c(-c3ccc(F)cc3)n[nH]c2C2CCN(C(=O)c3ccccc3C=O)CC2)n1` [Example 846] had an IC50 not above 1000 nM.
On the same count and under the same terms, for `CC(C)(C)c1ccc(CNC(=O)c2csc(-c3c(-c4ccc(F)cc4)n[nH]c3C3CCNCC3)n2)cc1` [Example 2135] the value was more than 1000 nM; for `COc1ccccc1N1CCN(C(=O)c2csc(-c3sc(C)nc3-c3ccc(F)cc3)n2)CC1` [Example 1921], more than 1000 nM.
The same measure, in the same setting: the value for `CCc1ccccc1NCc1nc(-c2ccc(F)cc2)c(-c2nc(C(=O)NC(C)C)cs2)o1` [Example 1319] was more than 1000 nM; that for `CC(C)NC(=O)c1csc(-c2c(-c3ccc(F)cc3)n[nH]c2C2CCN(C(=O)c3cc(Cl)ccc3[N+](=O)[O-])CC2)n1` [Example 989] was more than 1000 nM.
As to `CC(C)CN(C)Cc1onc(-c2ccc(F)cc2)c1-c1nc(C(=O)NC(C)C)cs1` [Example 1517], the IC50 is more than 1000 nM.
On the same count and under the same terms, the value for `CC(C)NC(=O)c1csc(-c2c(-c3ccc(F)cc3)noc2CN(C)CC(O)c2ccccc2)n1` (centres unmarked) [Example 1560] was more than 1000 nM.
For `CC(C)NC(=O)c1csc(-c2oc(CN3CC(C)OC(C)C3)nc2-c2ccc(F)cc2)n1` (centres unmarked) [Example 1213], the IC50 is more than 1000 nM.
Still for that read-out and setting: for `CC(C)NC(=O)c1csc(-c2c(-c3ccc(F)cc3)n[nH]c2C2CCN(C(=O)c3ccccc3[N+](=O)[O-])CC2)n1` [Example 898] the value was more than 1000 nM; for `CC(C)NC(=O)c1csc(-c2c(-c3ccc(F)cc3)n[nH]c2C2CCN(C(=O)c3cnc(O)c(Cl)c3)CC2)n1` [Example 912], more than 1000 nM; for `CC(C)NC(=O)c1csc(-c2c(-c3ccc(F)cc3)ncn2C2CC(C)(C)NC(C)(C)C2)n1` [Example 2189, 2-|5-(4-Fluoro-phenyl)-3-(2,2,6,6-tetramethyl-piperidin-4-yl)-3H-imidazol-4-yl|-thiazole-4-carboxylic acid isopropylamide], more than 1000 nM.
In turn, `CC(C)NC(=O)c1csc(-c2oc(CNCCN3CCCC3)nc2-c2ccc(F)cc2)n1` [Example 1093] yielded a half-inhibitory concentration (IC50) of more than 1000 nM.
The same measure, in the same setting: for `Cc1[nH]nc(-c2ccc(F)cc2)c1-c1nc(C(=O)NC(C)C)no1` [Example 2196, 5-|3-(4-Fluoro-phenyl)-5-methyl-1H-pyrazol-4-yl|-|1,2,4|oxadiazole-3-carboxylic acid isopropylamide] the value was more than 1000 nM; for `COc1cccc(O)c1C(=O)N1CCC(c2[nH]nc(-c3ccc(F)cc3)c2-c2nc(C(=O)NC(C)C)cs2)CC1` [Example 900], more than 1000 nM.
